Data from patent publication US20250241926A1, “HETEROCYCLIC COMPOUNDS FOR USE IN THE TREATMENT OF CANCER” (ARTIOS PHARMA LIMITED, priority 2021, published 2025).

target: T1, Human Polθ polymerase domain (aa1820-2590) (Homo sapiens, UniProt O75417); assay: Polθ Polymerase Domain Kinact/Kl Assay (PicoGreen); format: biochemical; conditions: covalent inhibitors, kobs vs [I] fit, 0.8 nM Polθ, 100 nM DNA substrate
T1 construct: Human Polθ polymerase domain (aa1820-2590) was expressed in E. Coli; made in house; host or cells: E. coli
T1 sequence (O75417 1820-2590): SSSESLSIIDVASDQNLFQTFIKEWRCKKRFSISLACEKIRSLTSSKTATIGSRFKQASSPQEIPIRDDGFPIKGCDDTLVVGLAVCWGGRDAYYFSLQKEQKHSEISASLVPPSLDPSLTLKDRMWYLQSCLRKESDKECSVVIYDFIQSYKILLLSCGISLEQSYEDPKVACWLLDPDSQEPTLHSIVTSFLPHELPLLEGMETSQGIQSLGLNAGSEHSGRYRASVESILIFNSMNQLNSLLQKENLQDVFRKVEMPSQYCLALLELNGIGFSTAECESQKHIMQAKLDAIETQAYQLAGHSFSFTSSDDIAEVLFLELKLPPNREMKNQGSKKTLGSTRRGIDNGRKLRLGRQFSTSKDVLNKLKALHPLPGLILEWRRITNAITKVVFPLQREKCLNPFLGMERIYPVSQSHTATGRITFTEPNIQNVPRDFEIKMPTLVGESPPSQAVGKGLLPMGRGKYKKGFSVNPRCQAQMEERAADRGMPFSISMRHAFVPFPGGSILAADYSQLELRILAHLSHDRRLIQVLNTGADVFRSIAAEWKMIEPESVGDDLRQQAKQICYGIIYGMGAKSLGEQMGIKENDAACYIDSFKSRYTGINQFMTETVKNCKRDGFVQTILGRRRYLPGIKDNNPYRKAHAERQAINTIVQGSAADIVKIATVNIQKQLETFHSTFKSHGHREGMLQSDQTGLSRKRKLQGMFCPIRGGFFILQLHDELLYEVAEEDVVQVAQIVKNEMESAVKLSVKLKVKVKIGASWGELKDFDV
Procedure: Polθ Polymerase Domain Kinact/Kl Assay
A PicoGreen assay was used to measure the Kinact and Kl values of covalent compounds that inhibit the activity of Polθ in vitro.
Human Polθ polymerase domain (aa1820-2590) was expressed in E. Coli, purified, aliquoted and stored at −80° C. until required. Polθ substrate was generated from a 1.2:1 mix of DNA II Short to DNA II Long to give a final concentration of […] substrate in annealing buffer (20 mM Tris pH 7.5, 50 mM NaCl). The substrate was heated in 50 mL aliquots to 95° C. in a heating block for 5 min before the heating block switched off, the reaction left to cool to rt and stored at −20° C. until required.
Assay measurements were performed with 1× buffer comprising 25 mM Tris pH 7.5, 12.5 mM NaCl, […], 5% (v/v) glycerol, 0.01% v/v Triton x-100, 0.1 mg/ml BSA, 1 mM DTT. Test compounds were prepared by dilution in 100% DMSO to give a 12 μM intermediate stock of each (100× final top concentration). 100 nL of 23× 1:1.5-fold serial dilutions and a DMSO only control were dispensed using the Tecan dispenser into Greiner 384 well black low volume plates (product code 784076). DMSO concentration was maintained at 1% of the final assay volume by back filling with DMSO.
2× Working stock of substrate (200 nM of DNA substrate and […] dNTPs) and enzyme (1.4 nM Polθ) were made up in assay buffer. 5 μL/well of both enzyme and substrate 2× solutions were dispensed using a Tempest dispenser (Formulatrix) into assay plates that had been pre-dispensed with compound to give a final assay concentration of 100 nM DNA substrate, […] dNTPs and 0.8 nM Polθ. To stop the reaction, […] of a solution containing 25 mM Tris-HCl pH 7.5 and 20 mM EDTA was added at […] (t=0, 2.5, 5, 7.5, 10, 12.5, 15, 20, 25, 30, 35, 40, 45, 50, 55 and 60 min) using the Tempest's time delay function. The plates were covered during the time course to prevent evaporation. After completing the assay, 5 μL of detection reagent (25 mM Tris-HCl pH 7.5 and 2.5% (v/v) PicoGreen) was dispensed into the wells using a Tempest liquid handler (Formulatrix) and plates subsequently read on the CLARIOstar Plus (BMG Labtech) using the default optical settings for fluorescein and the auto gain/focus settings.
All data analysis was carried out using GraphPad Prism V. 8 (GraphPad Software Inc, San Diego, CA) Time course data for each inhibitor concentration was fitted to equation 1 to determine kobs values.^1 Any time points where the control (DMSO alone) reaction was no longer linear were excluded from the analysis.
A secondary plot of kobs vs [I] is used to determine the Kinact and Kl parameters (for a 2-step covalent inhibitor) by fitting to equation 2.1
[formula] • 1) Evaluation of Enzyme Inhibitors in Drug Discovery (Ch9), R. A Copeland, Wiley, 2nd Edition 2013.

| Molecule | kinact/KI [M⁻¹ s⁻¹] |
| --- | --- |
| 2-(((S)-6-(2-((R)-4-(1- Acryloylazetidin-3-yl)-2- methylpiperazin-1-yl)eth- yl)-7-fluoro-1-methyl-2- oxo-1,2,3,4,5,6-hexahydro- benzo[b][1,4]diazocin-3- yl)amino)-6-methyl-4- (trifluoromethyl)nicotino- nitrile [Example 15] | 280000 |
| (S,E)-2-((6-(2-(2- (4-(Dimethyl- amino)but-2-eno- yl)-5-methyl-7- oxo-2,5,8-triaza- spiro[3.5]nonan-8- yl)ethyl)-7-fluoro- 1-methyl-2-oxo- 1,2,3,4,5,6-hexa- hydrobenzo[b] [1,4]diazocin-3- yl)amino)-6-meth- yl-4-(trifluoro- methyl)nicotino- nitrile [Example 46] | 560000 |
| 2-(((S)-6-(2-((1S,4S)-5- (1-Acryloylazetidin-3-yl)- 2,5-diazabicyclo[2.2.1] heptan-2-yl)ethyl)-7- fluoro-1-methyl-2-oxo- 1,2,3,4,5,6-hexahydro- benzo[b][1,4]diazocin-3- yl)amino)-6-methyl-4- (trifluoromethyl)nicotino- nitrile [Example 19] | 160000 |
| C=CC(=O)N1CC(O[C@@H]2CN(CCN3CC[C@H](Nc4nc(C)cc(C(F)(F)F)c4C#N)C(=O)N(C)c4cccc(F)c43)C[C@H]2O)C1 [Example 65A, 2-(((S)-6-(2-((3S/R,4S/R)-3-((1-Acryloylazetidin-3-yl)oxy)-4-hydroxypyrrolidin-1-yl)ethyl)-7-fluoro-1-methyl-2-oxo-1,2,3,4,5,6-hexahydrobenzo[b][1,4]diazocin-3-yl)amino)-6-methyl-4-(trifluoromethyl)nicotinonitrile] | 460000 |
| C=CC(=O)N1CC(N2CC(=O)N(C)C(CN3CC[C@H](Nc4nc(C)cc(C(F)(F)F)c4C#N)C(=O)N(C)c4cccc(F)c43)C2)C1 (mixture of isomers) [Example 58A, 2-(((S)-6-(((S/R)-4-(1-Acryloylazetidin-3-yl)-1-methyl-6-oxopiperazin-2-yl)methyl)-7-fluoro-1-methyl-2-oxo-1,2,3,4,5,6-hexahydrobenzo[b][1,4]diazocin-3-yl)amino)-6-methyl-4-(trifluoromethyl)nicotinonitrile] | 60000 |
| (S)-2-((6-(2-(4-(1-Acrylo- yl-3-hydroxyazetidin-3- yl)piperidin-1-yl)ethyl)-7- fluoro-1-methyl-2-oxo- 1,2,3,4,5,6-hexahydro- benzo[b][1,4]diazocin-3- yl)amino)-6-methyl-4- (trifluoromethyl)nicotino- nitrile [Example 12] | 440000 |

same assay, conditions: covalent inhibitors, kobs vs [I] fit, 0.8 nM Polθ, 100 nM DNA substrate, read-out: Kinact/KI

| Molecule | kinact/KI [M⁻¹ s⁻¹] |
| --- | --- |
| C=CC(=O)N1CC2(CCCN(CCN3CC[C@H](Nc4nc(C)cc(C(F)(F)F)c4C#N)C(=O)N(C)c4cccc(F)c43)C2)C1 [Example 9, (S)-2-((6-(2-(2-Acryloyl-2,6-diazaspiro[3.5]nonan-6-yl)ethyl)-7-fluoro-1-methyl-2-oxo-1,2,3,4,5,6-hexahydrobenzo[b][1,4]diazocin-3-yl)amino)-6-methyl-4-(trifluorometh-yl)nicotinonitrile] | 300000 |
| COCCN(C)C/C=C/C(=O)N1CC(OCCCN2CC[C@H](Nc3nc(C)cc(C(F)(F)F)c3C#N)C(=O)N(C)c3cccc(F)c32)C1 [Example 56, (S,E)-2-((7-Fluoro-6-(3-((1-(4-((2-methoxyethyl)(methyl)amino)but-2-enoyl)azetidin-3-yl)oxy)propyl)-1-methyl-2-oxo-1,2,3,4,5,6-hexahydrobenzo[b][1,4]diazocin-3-yl)amino)-6-methyl-4-(trifluoromethyl)nicotinonitrile] | 1.1e+07 |
| Cc1cc(C(F)(F)F)c(C#N)c(N[C@H]2CCN(CCN3CC4(C3)CN(C(=O)/C=C/CN(C)C)C4)c3ccccc3N(C)C2=O)n1 [Example 4, (S,E)-2-((6-(2-(6-(4-(Dimethylamino)but-2-enoyl)-2,6-diazaspiro[3.3]heptan-2-yl)ethyl)-1-methyl-2-oxo-1,2,3,4,5,6-hexahydrobenzo[b][1,4]diazocin-3-yl)amino)-6-methyl-4-(trifluoromethyl)nicotinonitrile] | 300000 |
| C=CC(=O)N1CC(N2CCN(CCN3CC[C@H](Nc4nc(C)cc(C(F)(F)F)c4C#N)C(=O)N(C)c4cccc(F)c43)C[C@@H]2C)C1 [Example 17, 2-(((S)-6-(2-((S)-4-(1-Acryloylazetidin-3-yl)-3-methylpiperazin-1-yl)-ethyl)-7-fluoro-1-methyl-2-oxo-1,2,3,4,5,6-hexa-hydrobenzo[b][1,4]diazocin-3-yl)amino)-6-methyl-4-(trifluorometh-yl)nicotinonitrile] | 570000 |
| C=CC(=O)N1CC2(CN(CCN3CC[C@H](Nc4nc(C)cc(C(F)(F)F)c4C#N)C(=O)N(CC)c4cccc(F)c43)CCN2)C1 [Example 70, (S)-2-((6-(2-(2-Acryloyl-2,5,8-triazaspiro[3.5]nonan-8-yl)ethyl)-1-ethyl-7-fluoro-2-oxo-1,2,3,4,5,6-hexahydrobenzo[b][1,4]diazocin-3-yl)amino)-6-methyl-4-(trifluoromethyl)nicotinonitrile] | 1.3e+06 |
| Cc1cc(C(F)(F)F)c(C#N)c(N[C@H]2CCN(CCCOC3CN(C(=O)/C=C/CN(C)C)C3)c3c(F)cccc3N(C)C2=O)n1 [Example 40, (S,E)-2-((6-(3-((1-(4-(Dimethylamino)but-2-enoyl)azetidin-3-yl)oxy)propyl)-7-fluoro-1-methyl-2-oxo-1,2,3,4,5,6-hexahydrobenzo[b][1,4]diazocin-3-yl)amino)-6-methyl-4-(trifluoromethyl)nicotinonitrile] | 3e+06 |
| Cc1cc(C(F)(F)F)c(C#N)c(N[C@H]2CCN(CCCOC3CN(C(=O)/C=C/CN(C)C)C3)c3cc(F)ccc3N(C)C2=O)n1 [Example 42, (S,E)-2-((6-(3-((1-(4-(Dimethylamino)but-2-enoyl)azetidin-3-yl)oxy)propyl)-8-fluoro-1-methyl-2-oxo-1,2,3,4,5,6-hexahydrobenzo[b][1,4]diazocin-3-yl)amino)-6-methyl-4-(trifluoromethyl)nicotinonitrile] | 820000 |
| Cc1cc(C(F)(F)F)c(C#N)c(N[C@H]2CCN(CCCOC3CN(C(=O)/C=C/CN(C)C)C3)c3c(Cl)cccc3N(C)C2=O)n1 [Example 44, (S,E)-2-((7-Chloro-6-(3-((1-(4-(dimethylamino)but-2-enoyl)azetidin-3-yl)oxy)propyl)-1-methyl-2-oxo-1,2,3,4,5,6-hexahydrobenzo[b][1,4]diazocin-3-yl)amino)-6-methyl-4-(trifluoromethyl)nicotinonitrile] | 1.3e+06 |
| C=CC(=O)N1CCN(CCCN2CC[C@H](Nc3nc(C)cc(C(F)(F)F)c3C#N)C(=O)N(C)c3cccc(F)c32)CC1 [Example 37, (S)-2-((6-(3-(4-Acryloylpiperazin-1-yl)propyl)-7-fluoro-1-methyl-2-oxo-1,2,3,4,5,6-hexahydrobenzo[b][1,4]diazocin-3-yl)amino)-6-methyl-4-(trifluoromethyl)nicotinonitrile] | 340000 |
